{
  "source": "patent US8629157B2",
  "about": "“Pyrrolidine compounds which modulate the CB2 receptor” (Boehringer Ingelheim International GmbH, priority 2009, dated 2014)",
  "molecular_target": "human CB2R (Homo sapiens, UniProt P34972)",
  "sequence (P34972 whole entry)": "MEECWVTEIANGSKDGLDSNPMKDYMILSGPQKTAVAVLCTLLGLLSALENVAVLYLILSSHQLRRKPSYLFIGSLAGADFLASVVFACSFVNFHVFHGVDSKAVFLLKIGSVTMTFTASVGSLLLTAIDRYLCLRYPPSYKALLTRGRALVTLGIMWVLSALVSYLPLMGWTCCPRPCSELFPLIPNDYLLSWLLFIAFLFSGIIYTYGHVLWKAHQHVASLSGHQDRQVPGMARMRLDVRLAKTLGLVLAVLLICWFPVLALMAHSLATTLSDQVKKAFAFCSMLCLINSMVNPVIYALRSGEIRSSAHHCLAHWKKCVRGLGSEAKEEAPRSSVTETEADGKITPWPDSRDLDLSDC",
  "assay": "CB2R mediated modulation of cAMP synthesis",
  "format": "cell-based",
  "method_in_brief": "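CHO cells expressing human CB2R were treated 30 min at 37° C. with compounds in buffer containing 1 mM IBMX, 0.25% BSA and 10 uM forskolin; cAMP in lysates was measured by DiscoverX-XS kit.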",
  "key": {"[1]": {"conditions": "CHO cells expressing human CB2R, inhibition of forskolin-stimulated cAMP synthesis, mean, read-out: CB2 CAMP @ EC50 nM (mean)"}},
  "note": "Where two headings read alike, the source gives them in different places.",
  "data": [
    {"smiles": "C[C@@]1(C(=O)Nc2nc(-c3ccccc3)ns2)CCCN1c1ccc(C(F)(F)F)cn1", "note": "[(S)-2-Methyl-1-(5-trifluoromethyl-pyridin-2-yl)-pyrrolidine-2-carboxylic acid (3-phenyl-1,2,4-thiadiazol-5-yl)-amide]", "values": [
      {"measurement": "EC50", "value": 0.136, "unit": "nM"}
    ]},
    {"smiles": "CC(C)(C)c1cc(NC(=O)[C@]2(C)CCCN2c2ccc(C(F)(F)F)cn2)no1", "note": "[(S)-2-Methyl-1-(5-trifluoromethyl-pyridin-2-yl)-pyrrolidine-2-carboxylic acid (5-tert-butyl-isoxazol-3-yl)-amide]", "values": [
      {"measurement": "EC50", "value": 0.015, "unit": "nM"}
    ]},
    {"smiles": "C[C@@]1(C(=O)Nc2ccc(C(F)(F)F)cn2)CCCN1c1ccc(C(F)(F)F)cn1", "note": "[(S)-2-Methyl-1-(5-trifluoromethyl-pyridin-2-yl)-pyrrolidine-2-carboxylic acid (5-trifluoromethyl-pyridin-2-yl)-amide]", "values": [
      {"measurement": "EC50", "value": 0.634, "unit": "nM"}
    ]},
    {"smiles": "CC(C)(C)c1cc(NC(=O)[C@@H]2CCC(=O)N2c2cc(F)c(F)c(F)c2)on1", "note": "[(S)-5-Oxo-1-(3,4,5-trifluoro-phenyl)-pyrrolidine-2-carboxylic acid (3-tert-butyl-isoxazol-5-yl)-amide]", "values": [
      {"measurement": "EC50", "value": 80, "unit": "nM"}
    ]},
    {"smiles": "CC(C)(C)c1cc(NC(=O)[C@@H]2CCC(=O)N2c2cc(F)c(F)c(F)c2)no1", "note": "[(S)-5-Oxo-1-(3,4,5-trifluoro-phenyl)-pyrrolidine-2-carboxylic acid (5-tert-butyl-isoxazol-3-yl)-amide]", "values": [
      {"measurement": "EC50", "value": 74.7, "unit": "nM"}
    ]},
    {"smiles": "CC(C)(C)c1cc(NC(=O)[C@@H]2CCC(=O)N2c2ccc(OC(F)(F)F)cc2)on1", "note": "[(S)-5-Oxo-1-(4-trifluoromethoxy-phenyl)-pyrrolidine-2-carboxylic acid (3-tert-butyl-isoxazol-5-yl)-amide]", "values": [
      {"measurement": "EC50", "value": 34.5, "unit": "nM"}
    ]},
    {"smiles": "CC(C)(C)c1cc(NC(=O)[C@@H]2CCC(=O)N2c2ccc(OC(F)(F)F)cc2)no1", "note": "[(S)-5-Oxo-1-(4-trifluoromethoxy-phenyl)-pyrrolidine-2-carboxylic acid (5-tert-butyl-isoxazol-3-yl)-amide]", "values": [
      {"measurement": "EC50", "value": 132, "unit": "nM"}
    ]},
    {"smiles": "CC(C)c1cc(NC(=O)[C@@H]2CCC(=O)N2c2ccc(C(F)(F)F)cc2)on1", "note": "[(S)-5-Oxo-1-(4-trifluoromethyl-phenyl)-pyrrolidine-2-carboxylic acid (3-isopropyl-isoxazol-5-yl)-amide]", "values": [
      {"measurement": "EC50", "value": 41.8, "unit": "nM"}
    ]},
    {"smiles": "CCC(C)c1cc(NC(=O)[C@@H]2CCC(=O)N2c2ccc(C(F)(F)F)cc2)on1", "note": "(stereo partly drawn) [(S)-5-Oxo-1-(4-trifluoromethyl-phenyl)-pyrrolidine-2-carboxylic acid (3-sec-butyl-isoxazol-5-yl)-amide]", "values": [
      {"measurement": "EC50", "value": 40.9, "unit": "nM"}
    ]},
    {"smiles": "CC(C)(C)c1cc(NC(=O)[C@@H]2CCC(=O)N2c2ccc(C(F)(F)F)cc2)sn1", "note": "[(S)-5-Oxo-1-(4-trifluoromethyl-phenyl)-pyrrolidine-2-carboxylic acid (3-tert-butyl-isothiazol-5-yl)-amide]", "values": [
      {"measurement": "EC50", "value": 112, "unit": "nM"}
    ]},
    {"smiles": "CC(C)(C)c1cc(NC(=O)[C@@H]2CCC(=O)N2c2ccc(C(F)(F)F)cc2)no1", "note": "[(S)-5-Oxo-1-(4-trifluoromethyl-phenyl)-pyrrolidine-2-carboxylic acid (5-tert-butyl-isoxazol-3-yl)-amide]", "values": [
      {"measurement": "EC50", "value": 5.76, "unit": "nM"}
    ]},
    {"smiles": "COc1ccc(-c2nsc(NC(=O)[C@@H]3CCC(=O)N3c3ccc(C(F)(F)F)cc3)n2)cc1", "note": "[(S)-5-Oxo-1-(4-trifluoromethyl-phenyl)-pyrrolidine-2-carboxylic acid [3-(4-methoxy-phenyl)-1,2,4-thiadiazol-5-yl]-amide]", "values": [
      {"measurement": "EC50", "setting": "[1]", "value": 178, "unit": "nM"}
    ]},
    {"smiles": "CC(C)(CO)c1cc(NC(=O)[C@@H]2CCC(=O)N2c2ccc(C(F)(F)F)cc2)no1", "note": "[(S)-5-Oxo-1-(4-trifluoromethyl-phenyl)-pyrrolidine-2-carboxylic acid [5-(2-hydroxy-1,1-dimethyl-ethyl)-isoxazol-3-yl]-amide]", "values": [
      {"measurement": "EC50", "value": 80.8, "unit": "nM"}
    ]},
    {"smiles": "COCC(C)(C)c1cc(NC(=O)[C@@H]2CCC(=O)N2c2ccc(C(F)(F)F)cc2)no1", "note": "[(S)-5-Oxo-1-(4-trifluoromethyl-phenyl)-pyrrolidine-2-carboxylic acid [5-(2-methoxy-1,1-dimethyl-ethyl)-isoxazol-3-yl]-amide]", "values": [
      {"measurement": "EC50", "value": 15.2, "unit": "nM"}
    ]},
    {"smiles": "C=Cc1ccc(N2C(=O)CC[C@H]2C(=O)Nc2cc(C(C)(C)C)no2)cc1", "note": "[(S)-5-Oxo-1-(4-vinyl-phenyl)-pyrrolidine-2-carboxylic acid (3-tert-butyl-isoxazol-5-yl)-amide]", "values": [
      {"measurement": "EC50", "value": 20.3, "unit": "nM"}
    ]},
    {"smiles": "C=Cc1ccc(N2C(=O)CC[C@H]2C(=O)Nc2cc(C(C)(C)C)on2)cc1", "note": "[(S)-5-Oxo-1-(4-vinyl-phenyl)-pyrrolidine-2-carboxylic acid (5-tert-butyl-isoxazol-3-yl)-amide]", "values": [
      {"measurement": "EC50", "value": 70, "unit": "nM"}
    ]},
    {"smiles": "Cc1ccc(N2C(=O)CC[C@H]2C(=O)Nc2cc(C(C)(C)C)no2)cc1", "note": "[(S)-5-Oxo-1-p-tolyl-pyrrolidine-2-carboxylic acid (3-tert-butyl-isoxazol-5-yl)-amide]", "values": [
      {"measurement": "EC50", "value": 163, "unit": "nM"}
    ]},
    {"smiles": "CC(C)(C)c1cc(NC(=O)[C@@H]2CCC(=O)N2c2ccccn2)on1", "note": "[(S)-5-Oxo-1-pyridin-2-yl-pyrrolidine-2-carboxylic acid (3-tert-butyl-isoxazol-5-yl)-amide]", "values": [
      {"measurement": "EC50", "value": 136, "unit": "nM"}
    ]},
    {"smiles": "Cc1ccc(N2C(=O)CC[C@H]2C(=O)Nc2cc(C(C)(C)C)no2)cc1Cl", "note": "[(S)-l-(3-Chloro-4-methyl-phenyl)-5-oxo-pyrrolidine-2-carboxylic acid (3-tert-butyl-isoxazol-5-yl)-amide]", "values": [
      {"measurement": "EC50", "value": 77.4, "unit": "nM"}
    ]},
    {"smiles": "Cc1ccc(N2C(=O)CC[C@H]2C(=O)Nc2cc(C(C)(C)C)on2)cc1Cl", "note": "[(S)-l-(3-Chloro-4-methyl-phenyl)-5-oxo-pyrrolidine-2-carboxylic acid (5-tert-butyl-isoxazol-3-yl)-amide]", "values": [
      {"measurement": "EC50", "setting": "[1]", "value": 333, "unit": "nM"}
    ]},
    {"smiles": "COCC(C)(C)c1cc(NC(=O)[C@@H]2CCC(=O)N2c2ccc(Cl)cc2)on1", "note": "[(S)-l-(4-Chloro-phenyl)-5-oxo-pyrrolidine-2-carboxylic acid [3-(2-methoxy-1,1-dimethyl-ethyl)-isoxazol-5-yl]-amide]", "values": [
      {"measurement": "EC50", "value": 48.7, "unit": "nM"}
    ]},
    {"smiles": "COCC(C)(C)c1cc(NC(=O)[C@@H]2CCC(=O)N2c2ccc(Cl)cc2)no1", "note": "[(S)-l-(4-Chloro-phenyl)-5-oxo-pyrrolidine-2-carboxylic acid [5-(2-methoxy-1,1-dimethyl-ethyl)-isoxazol-3-yl]-amide]", "values": [
      {"measurement": "EC50", "value": 86.1, "unit": "nM"}
    ]},
    {"smiles": "CCCN1CCC[C@H]1C(=O)Nc1nc(C(C)(C)C)cs1", "note": "[Example 187, (S)-1-Propyl-pyrrolidine-2-carboxylic acid (4-tert-butyl-thiazol-2-yl)-amide]", "values": [
      {"measurement": "EC50", "value": 159, "unit": "nM"}
    ]},
    {"smiles": "CC(C)(C)OC(=O)CN1CCC[C@H]1C(=O)Nc1cc(C(C)(C)C)no1", "note": "[[(S)-2-(3-tert-Butyl-isoxazol-5-ylcarbamoyl)-pyrrolidin-1-yl]-acetic acid tert-butyl ester]", "values": [
      {"measurement": "EC50", "value": 0.1, "unit": "nM"}
    ]}
  ]
}
